Results from PubChem BioAssay AID2060897 (Molecular Pharmacology Branch, DTP, NCI, 2025).
pIC50: −log10 of the molar value.

Test system: 966289-007-R4-J1-PDC complex spheroid viability
Assay: Anticancer human tumor 966289-007-R4-J1-PDC patient-derived pancreatic adenocarcinoma cell line growth inhibition [RAS]
Details: for pIC50: curve of first compound; for viability, T/C: stronger effect = lower value; active = viability on the fitted dose curve at most 10% of control; inactive = the rest
Excerpt: RAS pathway inhibitors in Combinations in Complex Spheroids
A high-throughput screen of multi-cell type tumor spheroids was designed to identify active combinations of RAS pathway inhibitors and targeted small molecules. Complex spheroids include a stromal component modeled by human endothelial cells (HUVEC) and fibroblasts modeled by human mesenchymal stem cells (MSCs). The concentration ranges selected for each drug and investigational agent were based upon clinically achievable concentrations if the clinical Cmax of the agent was known.
Compounds. The drugs and investigational agents: abemaciclib (NSC768073), cobimetinib (NSC768068), divarasib (GDC6063, NSC841802), docetaxel (NSC628503), GDC-1971 (RLY-1971, NSC841576), gemcitabine (NSC613327), inavolisib (NSC800729), ipatasertib (NSC767898), KB-0742 (NSC834161), MRTX-1133 (NSC836407), osimertinib (NSC779217), RMC-4630 (NSC839698), RMC-6236 (NSC851965), RMC-6291 (NSC852671), Ro-3306 (NSC812927), sapanisertib (NSC764658), SN-38 (NSC673596), staurosporine (NSC755774), SY5609 (NSC837396), and tovorafenib (DAY101, NSC766906), were obtained from the National Cancer Institute (NCI) Developmental Therapeutics Program Chemical Repository. The FDA-approved anticancer drug set is available from the NCI Developmental Therapeutics Program. […] The stock solutions were prepared in dimethyl sulfoxide (DMSO, Sigma-Aldrich, St. Louis, MO, cat. D2650) at 800-fold the tested concentration and stored at -70 degrees C prior to their use. All drugs and investigational agents were tested over a range starting from a high concentration at or near the clinical Cmax and decreasing in half-log increments. If the clinical Cmax for an agent had not been determined, the highest concentration tested was 10 microM.
Cell Culture. All cells were maintained in an incubator at 37 degrees C and 5% CO2 with 95% humidity. The PDC lines were cultured according to standard operating procedures established by the NCI PDMR. All PDCs were thawed and cultured in Matrigel-coated flasks prepared with a working solution of 1X Ham's F-12 nutrient mix, without supplementation (Invitrogen, Waltham, MA, cat. 11765054), 100 U/mL penicillin-streptomycin (Invitrogen, cat. 15140122), and 2.5% Matrigel (Corning Inc., Corning, NY, cat. 354248) for the first three passages. The 362531-283-R-J2-PDC and 782815-120-R-J1-PDC lines were cultured in 6C/Colon 1B media, which includes advanced DMEM/F-12 (Thermo Fisher Scientific, cat. 12634028), 10 mM HEPES (Thermo Fisher Scientific, cat. 15630080), 1X GlutaMAX supplement (Thermo Fisher Scientific, cat. 35050061), 0.1 mg/mL primocin (InvivoGen, San Diego, CA, cat. ant-pm-2), 10% defined fetal bovine serum, heat inactivated (HyClone Laboratories Inc., Logan, UT, cat. SH30070.03HI), 50% L-WRN conditioned media (ATCC, cat. CRL-3276), 1.25 mM N-Acetyl-L-cysteine (Sigma-Aldrich, cat. A9165), 10 mM nicotinamide (Sigma-Aldrich, cat. N0636), 1X B-27 supplement (Thermo Fisher Scientific, cat. 17504044), 1X N-2 supplement (Thermo Fisher Scientific, cat. 17502048), 50 ng/mL human EGF (Thermo Fisher Scientific, cat. PHG0311), and 10 microM Y-27632 dihydrochloride (Tocris Bioscience, cat. 1254). The K12877-001-R-J1-PDC line was cultured in 6I media, which includes all 6C/Colon 1B media plus 10 ng/mL human FGF-10 (PeproTech, cat. 100-26), 1 ng/mL human FGF-2 (PeproTech, cat. 100-18B), 1 µM prostaglandin E2 (Tocris Bioscience, cat. 2296), […] hydrocortisone (Sigma-Aldrich, cat. H4001), and […] bovine insulin (Sigma-Aldrich, cat. I6634). The K86415-001-R-J1-PDC line was cultured in 6D media, which includes all 6C/Colon 1B media components minus the L-WRN conditioned media. The 485176-168-R4-J1-PDC was cultured in PANC media, which includes all 6C/Colon 1B media plus 100 ng/mL human FGF-10 (PeproTech, cat. 100-26), 500 nM SB-431542 (Selleckchem, cat. S1067), and 10 nM gastrin (Tocris Bioscience, cat. 3006). […]
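Also: spheroids exposed to agents for one week before readout.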
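For viability, T/C in this document: percent viability relative to DMSO vehicle control wells as 100%.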

Cc1nc(N2CCC3(CC2)COC(C)C3N)c(CO)nc1Sc1ccnc(N)c1Cl (configuration not stated) + CCn1c(-c2cc(N3CCN(C)CC3)cnc2C(C)OC)c2c3cc(ccc31)-c1csc(n1)CC(NC(=O)C1CC1C)C(=O)N1CCCC(N1)C(=O)OCC(C)(C)C2
< 5.00: pIC50 (second compound 0.000949 µM) | pIC50 (second compound 0.003 µM) | pIC50 (second compound 0.00949 µM) | pIC50 (second compound 0.03 µM) | pIC50 (second compound 0.0949 µM) | pIC50 (second compound 0.3 µM)
inactive: viability, T/C (second compound 0.000949 µM, first compound 0.0316 µM) 130% | viability, T/C (second compound 0.000949 µM, first compound 0.1 µM) 121% | viability, T/C (second compound 0.000949 µM, first compound 0.316 µM) 107% | viability, T/C (second compound 0.000949 µM, first compound 1 µM) 85.4% | viability, T/C (second compound 0.000949 µM, first compound 3.16 µM) 93.8% | viability, T/C (second compound 0.000949 µM, first compound 10 µM) 115% | viability, T/C (second compound 0.003 µM, first compound 0.0316 µM) 114% | viability, T/C (second compound 0.003 µM, first compound 0.1 µM) 92.9% | viability, T/C (second compound 0.003 µM, first compound 0.316 µM) 94.1% | viability, T/C (second compound 0.003 µM, first compound 1 µM) 86.7% | viability, T/C (second compound 0.003 µM, first compound 3.16 µM) 81.5% | viability, T/C (second compound 0.003 µM, first compound 10 µM) 97.1% | viability, T/C (second compound 0.00949 µM, first compound 0.0316 µM) 106% | viability, T/C (second compound 0.00949 µM, first compound 0.1 µM) 99.2% | viability, T/C (second compound 0.00949 µM, first compound 0.316 µM) 84.4% | viability, T/C (second compound 0.00949 µM, first compound 1 µM) 122% | viability, T/C (second compound 0.00949 µM, first compound 3.16 µM) 86.1% | viability, T/C (second compound 0.00949 µM, first compound 10 µM) 97.7% | viability, T/C (second compound 0.03 µM, first compound 0.0316 µM) 87.4% | viability, T/C (second compound 0.03 µM, first compound 0.1 µM) 69.8% | viability, T/C (second compound 0.03 µM, first compound 0.316 µM) 102% | viability, T/C (second compound 0.03 µM, first compound 1 µM) 107% | viability, T/C (second compound 0.03 µM, first compound 3.16 µM) 79.9% | viability, T/C (second compound 0.03 µM, first compound 10 µM) 102% | viability, T/C (second compound 0.0949 µM, first compound 0.0316 µM) 75.6% | viability, T/C (second compound 0.0949 µM, first compound 0.1 µM) 131% | viability, T/C (second compound 0.0949 µM, first compound 0.316 µM) 86.9% | viability, T/C (second compound 0.0949 µM, first compound 1 µM) 119% | viability, T/C (second compound 0.0949 µM, first compound 3.16 µM) 113% | viability, T/C (second compound 0.0949 µM, first compound 10 µM) 117% | viability, T/C (second compound 0.3 µM, first compound 0.0316 µM) 92.3% | viability, T/C (second compound 0.3 µM, first compound 0.1 µM) 88.6% | viability, T/C (second compound 0.3 µM, first compound 0.316 µM) 110% | viability, T/C (second compound 0.3 µM, first compound 1 µM) 108% | viability, T/C (second compound 0.3 µM, first compound 3.16 µM) 111% | viability, T/C (second compound 0.3 µM, first compound 10 µM) 103%
